Measured values reported in BigSolDB 2.1.

CCOc1cccc(C=O)c1O
solubility (mole fraction)
Details	278.15 K	283.15 K	288.15 K	293.15 K	298.15 K	303.15 K	308.15 K	313.15 K
in acetone	0.155	0.217	0.272	0.325	0.384	0.446	0.523	0.605
in acetonitrile	0.104	0.154	0.206	0.254	0.303	0.352	0.415	0.498
in ethanol	0.0153	0.0195	0.0287	0.0433	0.0662	0.102	0.145	0.214
in ethyl acetate	0.134	0.174	0.209	0.25	0.294	0.344	0.403	0.497
in isopropanol	0.0095	0.0143	0.0197	0.0284	0.0437	0.0642	0.0925	0.151
in methanol	0.0196	0.0355	0.0567	0.0786	0.132	0.211	0.304	0.434
in methyl acetate	0.137	0.185	0.227	0.281	0.335	0.388	0.475	0.563
in n-butanol	0.0163	0.0206	0.0287	0.0398	0.0566	0.0795	0.116	0.164
in n-butyl acetate	0.0985	0.125	0.158	0.188	0.237	0.281	0.334	0.409
in n-propanol	0.0145	0.0198	0.0262	0.0395	0.0576	0.0824	0.124	0.176
in n-propyl acetate	0.105	0.136	0.164	0.205	0.248	0.312	0.374	0.464
in water	5.24e-05	6.55e-05	7.32e-05	8.68e-05	0.000106	0.000125	0.000155	0.000191
